Experimental data: patent publication US9440964B2, “Pesticidal compositions and processes related thereto” (Dow AgroSciences LLC, priority 2011, dated 2016)
Where two headings read alike, the source gives them in different places.

Tests used:
Type in all cases: in vivo
[1] = test system: CEW (Helicoverpa zea); experiment: Bioassay on Corn Earworm (CEW), 128-well diet tray; details: Helicoverpa zea, 168 h, read-out: Rating CEW
How it was run: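 Helicoverpa zea (corn earworm) was tested in a 128-well diet tray. Each 3 mL well received one to five second instar larvae on diet treated with the test material in an acetone-water mixture, applied to eight wells and dried. Trays were sealed with clear self-adhesive covers, kept at 25° C., 14:10 light-dark for five to seven days, then percent mortality was averaged across eight wells.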

[2] = test system: BAW (Spodoptera exigua); experiment: Bioassay on Beet Armyworm (BAW), 128-well diet tray; details: Spodoptera exigua, 168 h, read-out: Rating BAW
How it was run: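 Second-instar Spodoptera exigua larvae (one to five per well) placed on artificial diet surface-treated with 50 μg/cm^2 compound in 90:10 acetone-water, dried, eight wells per compound. Held 5–7 days at 25 °C, 14:10 light-dark; percent mortality averaged across wells.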

[3] = test system: Green Peach Aphid (GPA) (Myzus persica); experiment: Bioassay on Green Peach Aphid (GPA), cabbage seedling foliar spray; details: 72 h, read-out: Rating GPA
Description: Certain molecules disclosed in this document were tested against GPA using procedures described in the following example. In the reporting of the results, the “GPA Rating Table” was used (See Table Section).
Cabbage seedlings grown in 3-inch pots, with 2-3 small (3-5 cm) true leaves, were used as test substrate. The seedlings were infested with 20-50 GPA (wingless adult and nymph stages) one day prior to chemical application. Four pots with individual seedlings were used for each treatment. Test compounds (2 mg) were dissolved in 2 mL of acetone/MeOH (1:1) solvent, forming stock solutions of 1000 ppm test compound. The stock solutions were diluted 5× with 0.025% Tween 20 in H2O to obtain the solution at 200 ppm test compound. A hand-held aspirator-type sprayer was used for spraying a solution to both sides of […] leaves until runoff. Reference plants (solvent check) were sprayed with the diluent only containing 20% by volume of acetone/MeOH (1:1) solvent. Treated plants were held in a holding room for three days at approximately 25° C. and ambient relative humidity (RH) prior to grading. Evaluation was conducted by counting the number of live aphids per plant under a microscope. Percent Control was measured by using Abbott's correction formula (W. S. Abbott, “A Method of Computing the Effectiveness of an Insecticide” J. Econ. Entomol. 18 (1925), pp. 265-267) as follows. Corrected % Control=100*(X−Y)/X • where • X=No. of live aphids on solvent check plants and • Y=No. of live aphids on treated plants
(§1) The results are indicated in the table entitled “Table ABC: Biological Results” (See Table Section).

[4] = test system: Yellow Fever Mosquito YFM (Aedes aegypti); experiment: Bioassay on Yellow Fever Mosquito (YFM) larvae, 96-well plate; details: mortality of about 1 day-old larvae, scored after 3 days
Description: Certain molecules disclosed in this document were tested against YFM using procedures described in the following paragraph. In the reporting of the results, the “YFM Rating Table” was used (See Table Section).
Master plates containing 400 μg of a molecule dissolved in 100 μL of dimethyl sulfoxide (DMSO) (equivalent to a 4000 ppm solution) are used. A master plate of assembled molecules contains 15 μL per well. To this plate, 135 μL of a 90:10 water:acetone mixture is added to each well. A robot (Biomek® NXP Laboratory Automation Workstation) is programmed to dispense 15 μL aspirations from the master plate into an empty 96-well shallow plate (“daughter” plate). There are 6 reps (“daughter” plates) created per master. The created daughter plates are then immediately infested with YFM larvae.
The day before plates are to be treated, mosquito eggs are placed in Millipore water containing liver powder to begin hatching (4 g. into 400 ml). After the daughter plates are created using the robot, they are infested with 220 μL of the liver powder/larval mosquito mixture (about 1 day-old larvae). After plates are infested with mosquito larvae, a non-evaporative lid is used to cover the plate to reduce drying. Plates are held at room temperature for 3 days prior to grading. After 3 days, each well is observed and scored based on mortality.
as §1

[5] = percent mortality, second instar larvae, 50 μg/cm^2 on diet, five to seven days
[6] = corrected % control (Abbott), 200 ppm foliar spray on cabbage, three days

Cc1cccc(C)c1N/C(=N/C(=O)Nc1ccc(-c2ncn(-c3ccc(OC(F)(F)F)cc3)n2)cc1)SCOC(=O)C(C)C [Molecule A4, (E)-(N′-(2,6-Dimethylphenyl)-N-(4-(1-(4-(trifluoromethyoxy)phenyl)-1H-1,2,4-triazol-3-yl)phenylcarbamoyl)carbamimidoylthio)methyl isobutyrate]
pest or weed control at 50 µg/cm2 [1, 5]: 50 to 100% | pest or weed control at 50 µg/cm2 [2, 5]: 50 to 100% | pest or weed control at 200 ppm [3, 6]: 0 to 80% | Rating YFM [4]: A (80-100)

COc1cc(C)c(N/C(=N/C(=O)Nc2ccc(-c3ncn(-c4ccc(OC(F)(F)F)cc4)n3)cc2)SCOC(=O)C(C)C)c(C)c1 [Molecule A7, (E)-(N′-(2,6-Dimethyl-4-methoxyphenyl)-N-(4-(1-(4-(trifluoromethyoxy)phenyl)-1H-1,2,4-triazol-3-yl)phenylcarbamoyl)carbamimidoylthio)methyl isobutyrate]
pest or weed control at 50 µg/cm2 [1, 5]: 50 to 100% | pest or weed control at 50 µg/cm2 [2, 5]: 50 to 100% | pest or weed control at 200 ppm [3, 6]: 0 to 80%

COc1cc(C)c(N/C(=N/C(=O)Nc2ccc(-c3ncn(-c4ccc(C(F)(F)F)cc4)n3)cc2)SCOC(=O)CNC(=O)OCc2ccccc2)c(C)c1 [Molecule A9, (E)-((N′-(4-Methoxy-2,6-dimethylphenyl)-N-((4-(1-(4-(trifluoromethyl)phenyl)-1H-1,2,4-triazol-3-yl)phenyl)carbamoyl)carbamimidoyl)thio)methyl 2-(((benzyloxy)carbonyl)amino)acetate]
pest or weed control at 50 µg/cm2 [1]: 50 to 100% | pest or weed control at 50 µg/cm2 [2]: 50 to 100% | pest or weed control at 200 ppm ([3]; foliar): 0 to 80%

Cc1cccc(C)c1N/C(S)=N/C(=O)Nc1ccc(-c2ncn(-c3ccc(OC(F)(F)F)cc3)n2)cc1 [Molecule A11]
pest or weed control at 50 µg/cm2 [1, 5]: 50 to 100% | pest or weed control at 50 µg/cm2 [2, 5]: 50 to 100% | pest or weed control at 200 ppm [3, 6]: 0 to 80%

Cc1cccc(C)c1N1C(=O)CS/C1=N\C(=O)Nc1ccc(-c2ncn(-c3ccc(OC(F)(F)F)cc3)n2)cc1 [Molecule A14, (Z)-1-(3-(2,6-dimethylphenyl)-4-oxothiazolidin-2-ylidene)-3-(4-(1-(4-(trifluoromethoxy)phenyl)-1H-1,2,4-triazol-3-yl)phenyl)urea]
pest or weed control at 50 µg/cm2 [1, 5]: 50 to 100% | pest or weed control at 50 µg/cm2 [2, 5]: 50 to 100% | pest or weed control at 200 ppm [3, 6]: 0 to 80% | Rating YFM [4]: A (80-100)

COc1ccc(N/C(O)=C/C(=O)Nc2ccc(-c3ncn(-c4ccc(OC(F)(F)F)cc4)n3)cc2)c(C)c1 [Molecule A33, (Z)-3-hydroxy-3-(4-methoxy-2-methylphenylamino)-N-(4-(1-(4-(trifluoromethoxy)phenyl)-1H-1,2,4-triazol-3-yl)phenyl)acrylamide]
pest or weed control at 50 µg/cm2 [1, 5]: 50 to 100% | pest or weed control at 50 µg/cm2 [2, 5]: 50 to 100% | pest or weed control at 200 ppm [3, 6]: 0 to 80%

COc1cc(C)c(N2C(=O)CS/C2=N\C(=O)Nc2ccc(-c3ncn(-c4ccc(OC(F)(F)F)cc4)n3)cc2)c(C)c1 [Molecule A44]
pest or weed control at 50 µg/cm2 [1, 5]: 50 to 100% | pest or weed control at 50 µg/cm2 [2, 5]: 50 to 100% | pest or weed control at 200 ppm [3, 6]: 0 to 80% | Rating YFM [4]: A (80-100)

CCc1ccccc1N/C(S)=N/C(=O)Nc1ccc(-c2ncn(-c3ccc(OC(F)(F)F)cc3)n2)cc1 [Molecule A46]
pest or weed control at 50 µg/cm2 [1, 5]: 50 to 100% | pest or weed control at 50 µg/cm2 [2, 5]: 50 to 100% | pest or weed control at 200 ppm [3, 6]: 0 to 80% | Rating YFM [4]: A (80-100)
